According to patent US20170157110A1, “METHODS FOR INDUCING INSULIN PRODUCTION AND USES THEREOF” (UNIVERSITE DE GENEVE, priority 2014, published 2017):

What was measured:
β-cells = assay type: in vivo, mice; settings: 2 weeks following DT administration; ablation at 2 weeks of age
α-cells = assay: α-cell lineage tracing after β-cell ablation in Glucagon-rtTA; TetO-Cre; R26-YFP; RIP-DTR pups; assay type: in vivo, mice; settings: DT at 2 weeks of age
FoxO1 [1] = target: T1, FoxO1 (Mus musculus, UniProt Q9R1E0); assay: Transient FoxO1 inhibition in β-cell-ablated (and non-ablated control) adult Somatostatin-Cre; R26-YFP; RIP-DTR mice: δ-cell conversion into insulin+ cells
FoxO1 [2] = target: T1, FoxO1; set-up: endogenous in cells; host or cells: Somatostatin-Cre; R26-YFP; RIP-DTR mice (pancreatic islets, δ-cells), in vivo; settings: oral administration, diabetic db/db mice; cited from earlier work
[3] = administered immediately after DT ablation, analysed 1mpa, adult mice

T1 sequence (Q9R1E0 whole entry): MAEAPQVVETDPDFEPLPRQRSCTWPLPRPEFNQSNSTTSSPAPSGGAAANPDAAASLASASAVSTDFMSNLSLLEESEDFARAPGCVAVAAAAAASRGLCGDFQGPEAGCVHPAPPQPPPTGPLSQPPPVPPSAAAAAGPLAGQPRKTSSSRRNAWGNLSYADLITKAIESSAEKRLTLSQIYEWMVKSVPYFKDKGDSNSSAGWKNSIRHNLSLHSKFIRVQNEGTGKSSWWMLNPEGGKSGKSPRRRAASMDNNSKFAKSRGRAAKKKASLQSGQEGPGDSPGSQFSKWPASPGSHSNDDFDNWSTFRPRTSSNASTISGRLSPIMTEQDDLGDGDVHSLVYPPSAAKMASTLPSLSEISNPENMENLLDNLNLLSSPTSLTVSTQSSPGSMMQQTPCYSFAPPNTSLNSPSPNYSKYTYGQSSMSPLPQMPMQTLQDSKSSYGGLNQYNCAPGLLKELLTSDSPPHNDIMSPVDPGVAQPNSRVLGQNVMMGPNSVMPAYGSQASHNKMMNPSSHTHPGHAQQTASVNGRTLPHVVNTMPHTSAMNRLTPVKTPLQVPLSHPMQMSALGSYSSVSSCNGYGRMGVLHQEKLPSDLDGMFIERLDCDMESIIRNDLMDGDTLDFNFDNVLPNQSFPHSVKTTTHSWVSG

insulin+ cells more abundant (FoxO1 [1]; AS1842856 given for 1 week immediately after DT ablation, analysed 1 month post ablation (1mpa), adult mice, 30 mg/kg i.p. daily) [fold]	fraction of YFP+ cells that expressed insulin only (FoxO1 [1]; [3])	insulin+ cells that were YFP+, i.e. dedifferentiated δ-cells (FoxO1 [1]; [3]) [%]	δ-cell de-differentiation upon transient FoxO1 inhibition (FoxO1 [1]; adult mice, AS1842856 for 1 week)	effect on insulin expression induction (FoxO1 [1]; non-ablated control mice)	Compound	β-cells lost (β-cells) [%]	YFP+/insulin+ (% cells; 1.5 mpa) (α-cells) [%]	fasting plasma glucose level (FoxO1 [2])
–	–	–	–	–	Diphtheria toxin [DT]	99	0.23	–
11	one-fourth	93	de-differentiate	minimal effect	CCn1cc(C(=O)O)c(=O)c2c(N)c(F)c(NC3CCCCC3)cc21 [AS1842856, 5-amino-7-(cyclohexylamino)-1-ethyl-6-fluoro-4-oxo-1,4-dihydroquinoline-3-carboxylic acid]	–	–	drastic decrease
